Source: patent US10787452B2 (Vertex Pharmaceuticals Incorporated, priority 2012, dated 2020)

Test system: HCT116 colorectal cancer cells
Test: Cisplatin sensitization assay (96 h cell viability MTS);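 also: compound concentration needed to lower the Cisplatin-alone IC50 by a set fold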
Format: cell-based
Conditions: 96 h MTS, compound plus Cisplatin
Outline: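 Viability is measured with MTS reagent, added after 96 h and developed for 1 h at 37° C. Beforehand, cells receive compound and cisplatin simultaneously in a concentration matrix of 2-fold serial dilutions starting at 10 μM final.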

Row | Compound | Cisplatin Sensitization Assay
1 | Nc1nn2cc(F)cnc2c1C(=O)Nc1cnccc1O[C@@H]1CN2CCC1CC2 [I-O-10, (S)-2-amino-6-fluoro-N-(4-(quinuclidin-3-yloxy)pyridin-3-yl)pyrazolo[1,5-a]pyrimidine-3-carboxamide] | +++ (Compounds with a Cisplatin sensitization value of <0.02 μM are marked with “+++.”)
2 | Nc1nn2cc(F)cnc2c1C(=O)Nc1cnccc1OC1CCN(C2COC2)CC1 [I-O-11, 2-amino-6-fluoro-N-(4-((1-(oxetan-3-yl)piperidin-4-yl)oxy)pyridin-3-yl)pyrazolo[1,5-a]pyrimidine-3-carboxamide] | +++ (Compounds with a Cisplatin sensitization value of <0.02 μM are marked with “+++.”)
3 | CN1CCC(Oc2ccncc2NC(=O)c2c(N)nn3cc(F)cnc23)CC1 [I-O-12, 2-amino-6-fluoro-N-(4-((1-methylpiperidin-4-yl)oxy)pyridin-3-yl)pyrazolo[1,5-a]pyrimidine-3-carboxamide] | +++ (Compounds with a Cisplatin sensitization value of <0.02 μM are marked with “+++.”)
4 | COC(=O)[C@H]1CC[C@H](Oc2ccncc2NC(=O)c2c(N)nn3cc(F)cnc23)CC1 [I-O-13, (1r,4r)-methyl 4-((3-(2-amino-6-fluoropyrazolo[1,5-a]pyrimidine-3-carboxamido)pyridin-4-yl)oxy)cyclohexanecarboxylate] | +++ (Compounds with a Cisplatin sensitization value of <0.02 μM are marked with “+++.”)
5 | CCOc1ccncc1NC(=O)c1c(N)nn2cc(F)cnc12 [I-O-14, 2-amino-N-(4-ethoxypyridin-3-yl)-6-fluoropyrazolo[1,5-a]pyrimidine-3-carboxamide] | +++ (Compounds with a Cisplatin sensitization value of <0.02 μM are marked with “+++.”)
6 | Nc1nn2cc(F)cnc2c1C(=O)Nc1cnccc1O[C@H]1Cc2nccn2C1 [I-O-16, (S)-2-amino-N-(4-((6,7-dihydro-5H-pyrrolo[1,2-a]imidazol-6-yl)oxy)pyridin-3-yl)-6-fluoropyrazolo[1,5-a]pyrimidine-3-carboxamide] | +++ (Compounds with a Cisplatin sensitization value of <0.02 μM are marked with “+++.”)
7 | CN(C)C(=O)[C@H]1CC[C@@H](Oc2ccncc2NC(=O)c2c(N)nn3cc(F)cnc23)CC1 [I-O-17, 2-amino-N-(4-(((1s,4s)-4-(dimethylcarbamoyl)cyclohexyl)oxy)pyridin-3-yl)-6-fluoropyrazolo[1,5-a]pyrimidine-3-carboxamide] | +++ (Compounds with a Cisplatin sensitization value of <0.02 μM are marked with “+++.”)
8 | CN1CCN(C(=O)[C@H]2CC[C@@H](Oc3ccncc3NC(=O)c3c(N)nn4cc(F)cnc34)CC2)CC1 [I-O-19] | +++ (Compounds with a Cisplatin sensitization value of <0.02 μM are marked with “+++.”)
9 | CCC(C#N)c1cnc2c(C(=O)Nc3cnccc3OC)c(N)nn2c1 (centres unmarked) [I-O-20, 2-amino-6-(1-cyanopropyl)-N-(4-methoxypyridin-3-yl)pyrazolo[1,5-a]pyrimidine-3-carboxamide] | ++ (Compounds with a Cisplatin sensitization value >0.02 μM but <0.2 μM are marked with “++.”)
10 | COc1ccncc1NC(=O)c1c(N)nn2cc(C(C)C#N)cnc12 (centres unmarked) [I-O-21, 2-amino-6-(1-cyanoethyl)-N-(4-methoxypyridin-3-yl)pyrazolo[1,5-a]pyrimidine-3-carboxamide] | ++ (Compounds with a Cisplatin sensitization value >0.02 μM but <0.2 μM are marked with “++.”)
11 | CN1CCC(Oc2ccncc2NC(=O)c2c(N)nn3cc(CC#N)cnc23)CC1 [I-O-23, 2-amino-6-(cyanomethyl)-N-(4-((1-methylpiperidin-4-yl)oxy)pyridin-3-yl)pyrazolo[1,5-a]pyrimidine-3-carboxamide] | +++ (Compounds with a Cisplatin sensitization value of <0.02 μM are marked with “+++.”)
12 | CN(C)CCOc1ccncc1NC(=O)c1c(N)nn2cc(CC#N)cnc12 [I-O-24, 2-amino-6-(cyanomethyl)-N-(4-(2-(dimethylamino)ethoxy)pyridin-3-yl)pyrazolo[1,5-a]pyrimidine-3-carboxamide] | ++ (Compounds with a Cisplatin sensitization value >0.02 μM but <0.2 μM are marked with “++.”)
13 | N#CCc1cnc2c(C(=O)Nc3cnccc3Oc3ccccc3)c(N)nn2c1 [I-O-25, 2-amino-6-(cyanomethyl)-N-(4-phenoxypyridin-3-yl)pyrazolo[1,5-a]pyrimidine-3-carboxamide] | +++ (Compounds with a Cisplatin sensitization value of <0.02 μM are marked with “+++.”)
14 | COc1ccncc1NC(=O)c1c(N)nn2cc(CC#N)cnc12 [I-O-26, 2-amino-6-(cyanomethyl)-N-(4-methoxypyridin-3-yl)pyrazolo[1,5-a]pyrimidine-3-carboxamide] | ++ (Compounds with a Cisplatin sensitization value >0.02 μM but <0.2 μM are marked with “++.”)
15 | COc1cc(Cl)ncc1NC(=O)c1c(N)nn2cc(CC#N)cnc12 [I-O-27, 2-amino-N-(6-chloro-4-methoxypyridin-3-yl)-6-(cyanomethyl)pyrazolo[1,5-a]pyrimidine-3-carboxamide] | ++ (Compounds with a Cisplatin sensitization value >0.02 μM but <0.2 μM are marked with “++.”)
16 | CCOc1ccncc1NC(=O)c1c(N)nn2cc(CC#N)cnc12 [I-O-28, 2-amino-6-(cyanomethyl)-N-(4-ethoxypyridin-3-yl)pyrazolo[1,5-a]pyrimidine-3-carboxamide] | +++ (Compounds with a Cisplatin sensitization value of <0.02 μM are marked with “+++.”)
17 | COCCOc1ccncc1NC(=O)c1c(N)nn2cc(CC#N)cnc12 [I-O-29, 2-amino-6-(cyanomethyl)-N-(4-(2-methoxyethoxy)pyridin-3-yl)pyrazolo[1,5-a]pyrimidine-3-carboxamide] | +++ (Compounds with a Cisplatin sensitization value of <0.02 μM are marked with “+++.”)
18 | N#CCc1cnc2c(C(=O)Nc3cnccc3OC3CCOCC3)c(N)nn2c1 [I-O-30, 2-amino-6-(cyanomethyl)-N-(4-((tetrahydro-2H-pyran-4-yl)oxy)pyridin-3-yl)pyrazolo[1,5-a]pyrimidine-3-carboxamide] | +++ (Compounds with a Cisplatin sensitization value of <0.02 μM are marked with “+++.”)
19 | N#CCc1cnc2c(C(=O)Nc3cnccc3OCC3CC3)c(N)nn2c1 [I-O-32, 2-amino-6-(cyanomethyl)-N-(4-(cyclopropylmethoxy)pyridin-3-yl)pyrazolo[1,5-a]pyrimidine-3-carboxamide] | +++ (Compounds with a Cisplatin sensitization value of <0.02 μM are marked with “+++.”)
20 | N#CCc1cnc2c(C(=O)Nc3cnccc3OCCO)c(N)nn2c1 [I-O-33, 2-amino-6-(cyanomethyl)-N-(4-(2-hydroxyethoxy)pyridin-3-yl)pyrazolo[1,5-a]pyrimidine-3-carboxamide] | ++ (Compounds with a Cisplatin sensitization value >0.02 μM but <0.2 μM are marked with “++.”)
21 | N#CCc1cnc2c(C(=O)Nc3cnccc3OCC(F)(F)F)c(N)nn2c1 [I-O-34, 2-amino-6-(cyanomethyl)-N-(4-(2,2,2-trifluoroethoxy)pyridin-3-yl)pyrazolo[1,5-a]pyrimidine-3-carboxamide] | ++ (Compounds with a Cisplatin sensitization value >0.02 μM but <0.2 μM are marked with “++.”)
22 | CC(C)Oc1ccncc1NC(=O)c1c(N)nn2cc(CC#N)cnc12 [I-O-35, 2-amino-6-(cyanomethyl)-N-(4-isopropoxypyridin-3-yl)pyrazolo[1,5-a]pyrimidine-3-carboxamide] | +++ (Compounds with a Cisplatin sensitization value of <0.02 μM are marked with “+++.”)
23 | N#CCc1cnc2c(C(=O)Nc3cnccc3OC3CCC3)c(N)nn2c1 [I-O-36, 2-amino-6-(cyanomethyl)-N-(4-cyclobutoxypyridin-3-yl)pyrazolo[1,5-a]pyrimidine-3-carboxamide] | +++ (Compounds with a Cisplatin sensitization value of <0.02 μM are marked with “+++.”)
24 | N#CCc1cnc2c(C(=O)Nc3cnccc3OC3COC3)c(N)nn2c1 [I-O-38, 2-amino-6-(cyanomethyl)-N-(4-(oxetan-3-yloxy)pyridin-3-yl)pyrazolo[1,5-a]pyrimidine-3-carboxamide] | +++ (Compounds with a Cisplatin sensitization value of <0.02 μM are marked with “+++.”)
25 | N#CCc1cnc2c(C(=O)Nc3cnccc3OC3CCCCC3)c(N)nn2c1 [I-O-39, 2-amino-6-(cyanomethyl)-N-(4-(cyclohexyloxy)pyridin-3-yl)pyrazolo[1,5-a]pyrimidine-3-carboxamide] | +++ (Compounds with a Cisplatin sensitization value of <0.02 μM are marked with “+++.”)
26 | N#CCc1cnc2c(C(=O)Nc3cnccc3OCCCO)c(N)nn2c1 [I-O-40, 2-amino-6-(cyanomethyl)-N-(4-(3-hydroxypropoxy)pyridin-3-yl)pyrazolo[1,5-a]pyrimidine-3-carboxamide] | ++ (Compounds with a Cisplatin sensitization value >0.02 μM but <0.2 μM are marked with “++.”)
27 | N#CCc1cnc2c(C(=O)Nc3cnccc3OC3CCCOC3)c(N)nn2c1 (centres unmarked) [I-O-41, 2-amino-6-(cyanomethyl)-N-(4-((tetrahydro-2H-pyran-3-yl)oxy)pyridin-3-yl)pyrazolo[1,5-a]pyrimidine-3-carboxamide] | +++ (Compounds with a Cisplatin sensitization value of <0.02 μM are marked with “+++.”)
28 | N#CCc1cnc2c(C(=O)Nc3cnccc3O[C@H]3CCOC3)c(N)nn2c1 [I-O-42, (S)-2-amino-6-(cyanomethyl)-N-(4-((tetrahydrofuran-3-yl)oxy)pyridin-3-yl)pyrazolo[1,5-a]pyrimidine-3-carboxamide] | +++ (Compounds with a Cisplatin sensitization value of <0.02 μM are marked with “+++.”)
29 | N#CCc1cnc2c(C(=O)Nc3cnccc3OC3CCCC3)c(N)nn2c1 [I-O-43, 2-amino-6-(cyanomethyl)-N-(4-(cyclopentyloxy)pyridin-3-yl)pyrazolo[1,5-a]pyrimidine-3-carboxamide] | +++ (Compounds with a Cisplatin sensitization value of <0.02 μM are marked with “+++.”)
